Experimental data: patent US8293481B2, “Biomarkers for chronic vascular dysfunction” (Mayo Foundation for Medical Education and Research, priority 2006, dated 2012)

System: aortic smooth muscle strips
Experiment: Dose-response relationship to 8-Br-cGMP, relaxation of aortic smooth muscle strips from treated rats
Format: in vivo, rat
Conditions: post-infarct animals treated with captopril, at both 2 and 4 weeks; P>0.05
Description: After intubation, rats were ventilated continuously (room air) using a small animal ventilator (Model 683, Harvard Apparatus, Holliston, Mass.). A left lateral thoracotomy incision was made along the 5th intercostal space and after the pericardium was opened, the heart was exteriorized using a retention suture placed at the apex. The left anterior descending coronary artery (LAD) was ligated twice using 6-0 prolene suture (Ethicon, Cornelia, Ga.). After chest closure with running 3-0 vicryl suture (Ethicon), rats were put in a recovery chamber with a heating pad and warming light. The post-operative survival rate reached 80%. […] Rats were fed a standard diet of Teklad rodent feed (Harlan) ad libitum and kept on a 12:12 h light-dark cycle. Rats were sacrificed at designated time intervals of 2 weeks and 4 weeks after surgery. […] Determination of the dose-response relationship to cGMP: Aortic smooth muscle strips were isolated from rats in the uninfarcted control group without treatment and from both placebo as well as captopril treated group at 2 weeks and 4 weeks post-LAD ligation to determine the dose-response relationship to cGMP. […] After the force reached a steady state, the dose-response relationship to 8-Br-cGMP (Calbiochem, San Diego, Calif.) was determined.

C[C@H](CS)C(=O)N1CCC[C@H]1C(=O)O [Captopril, 1-[(2S)-3-mercapto-2-methylpropionyl]-L-proline]
sensitivity of cGMP-mediated relaxation versus uninfarcted control aorta: not different
